Drawing on BindingDB's records for doi:10.1021/acs.biochem.5b00536 (University of Pennsylvania, 2015), this text covers IC50 for 7 molecules.

The structures appear in SMILES notation.

As a reminder, the IC50 is the concentration at which inhibition is half-maximal. Read a low IC50 as higher potency.

One assay addresses T1, Histone deacetylase 8 (Homo sapiens, UniProt Q9BY41).
T1 sequence (Q9BY41 whole entry): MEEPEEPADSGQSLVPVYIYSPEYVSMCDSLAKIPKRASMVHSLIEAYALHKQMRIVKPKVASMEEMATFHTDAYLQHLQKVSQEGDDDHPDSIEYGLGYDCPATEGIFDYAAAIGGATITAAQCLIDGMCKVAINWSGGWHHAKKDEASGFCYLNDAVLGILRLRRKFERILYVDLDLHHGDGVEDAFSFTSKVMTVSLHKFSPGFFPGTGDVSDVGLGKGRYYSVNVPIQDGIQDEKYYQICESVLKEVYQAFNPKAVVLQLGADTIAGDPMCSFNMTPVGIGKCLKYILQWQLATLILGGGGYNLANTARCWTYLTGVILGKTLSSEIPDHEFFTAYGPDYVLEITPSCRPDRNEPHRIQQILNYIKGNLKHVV
The assay can be described thus: HDAC8 Fluorimetric Assay. To be noted: pH 8.2. On the procedure: Activity assays were conducted at 25 °C and contained 500 nM HDAC8 enzyme, 150 μM Ac-Arg-His-Lys(Ac)-Lys(Ac)-aminomethylcoumarin substrate (BML-KI178, Enzo Life Sciences), and 0−10 mM inhibitor in assay buffer [25 mM Tris (pH 8.2), 137 mM NaCl, 2.7 mM KCl, and 1 mM MgCl2; 250 μM tris(2-carboxyethyl)phosphine was added for the assay of thiol compound 2] in a final volume of 50 μL. […] After 30 min, reactions were quenched by adding 100 μM M344 (Sigma-Aldrich) and the appropriate Fluor-de-Lys developer (BMLKI176, Enzo Life Sciences, 50 μL). Fluorescence was measured after 45 min using a Fluoroskan II plate reader (excitation at 355 nm, emission at 460 nm).

Assay [1] deals with T2, Acetylpolyamine amidohydrolase (Mycoplana ramosa, UniProt Q48935).
T2 sequence (Q48935 whole entry): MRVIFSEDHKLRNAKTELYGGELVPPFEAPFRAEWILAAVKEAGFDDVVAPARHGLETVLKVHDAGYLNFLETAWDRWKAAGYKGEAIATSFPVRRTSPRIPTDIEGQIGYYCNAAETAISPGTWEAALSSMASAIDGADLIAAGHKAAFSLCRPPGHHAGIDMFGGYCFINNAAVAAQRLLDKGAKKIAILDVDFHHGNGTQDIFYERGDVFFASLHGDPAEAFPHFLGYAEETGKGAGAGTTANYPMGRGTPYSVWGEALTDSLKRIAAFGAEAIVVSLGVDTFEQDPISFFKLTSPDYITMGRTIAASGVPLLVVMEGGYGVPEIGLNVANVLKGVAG
The assay can be described thus: APAH Fluorimetric Assay. Particulars: pH 8.2. As to the method:
Activity assays were conducted at 25 °C and contained 250 nM APAH (∼50% Zn2+ occupancy), 150 μM substrate, and 0−250 μM inhibitor in assay buffer [25 mM Tris (pH 8.2), 137 mM NaCl, 2.7 mM KCl, and 1 mM MgCl2] in a final volume of 50 μL. […] After 30 min, reactions were quenched by adding 100 μM M344 (Sigma-Aldrich) and the appropriate Fluor-de-Lys developer (BML-KI105, Enzo Life Sciences, 50 μL). Fluorescence was measured after 45 min using a Fluoroskan II plate reader (excitation at 355 nm, emission at 460 nm).

For the molecule `NCCCCCCCC(=O)NO`, the 50% inhibitory concentration (IC50) came out at 2200 nM against Histone deacetylase 8 and 150 nM in assay [1].
On the same counts, the results for `NCCCCCC(=O)NO` are 19000 nM and 130 nM.
`NCCCNCCCCCC(=O)C(F)(F)F` [(3-azaniumylpropyl)(7,7,7-trifluoro-6-oxoheptyl)azanium (1)]: the IC50 against Histone deacetylase 8 is 260 nM.
With `NCCCCCCC(=O)NO`, the concentration for half-maximal inhibition (IC50) stood at 5300 nM against Histone deacetylase 8 and 68 nM in assay [1].
As to `NCCCNCCCCCS` [(3-azaniumylpropyl)(5-sulfanylpentyl)azanium (2)], the 50% inhibitory concentration (IC50) on Histone deacetylase 8 turned out to be 12000 nM.
On Histone deacetylase 8, `NCCCNCCCCCC(=O)NO` [(3-azaniumylpropyl)[5-(hydroxycarbamoyl)pentyl]azanium (3)] yielded an IC50 of 14000 nM.
Consider `NCCCCC(=O)NO` [5-Amino-N-hydroxypentanamide (4)], for which the IC50 on Histone deacetylase 8 was determined as 120000 nM; in assay [1], 170 nM.
